From patent US20250275959A1, “COMPOUNDS AND METHODS OF THEIR USE” (LEXICON PHARMACEUTICALS, INC., priority 2024, published 2025)

Experiments:
hACSL5 [1] = target: T1, hACSL5 (Homo sapiens (Human), UniProt Q9ULC5); assay: Human ACSL5 coupled enzyme Amplex Red assay; type: biochemical; conditions: read-out: hACSL5 IC50
Procedure, shortened: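 C-terminally His-tagged ACSL5 (33-683) from sf9 cells, 20 nM, was preincubated with compound in MOPS-NaOH pH 7.6 with MgCl2, peroxidase and acyl-CoA oxidase. Reactions were started with 25 μM oleate, 30 μM CoA, 1 mM ATP and 50 μM Amplex Red; fluorescence (535/590 nm) after 10 minutes at 25° C. was fitted to the Hill equation for IC50 and maximal inhibition.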
Target sequence in this assay (Q9ULC5 33-683): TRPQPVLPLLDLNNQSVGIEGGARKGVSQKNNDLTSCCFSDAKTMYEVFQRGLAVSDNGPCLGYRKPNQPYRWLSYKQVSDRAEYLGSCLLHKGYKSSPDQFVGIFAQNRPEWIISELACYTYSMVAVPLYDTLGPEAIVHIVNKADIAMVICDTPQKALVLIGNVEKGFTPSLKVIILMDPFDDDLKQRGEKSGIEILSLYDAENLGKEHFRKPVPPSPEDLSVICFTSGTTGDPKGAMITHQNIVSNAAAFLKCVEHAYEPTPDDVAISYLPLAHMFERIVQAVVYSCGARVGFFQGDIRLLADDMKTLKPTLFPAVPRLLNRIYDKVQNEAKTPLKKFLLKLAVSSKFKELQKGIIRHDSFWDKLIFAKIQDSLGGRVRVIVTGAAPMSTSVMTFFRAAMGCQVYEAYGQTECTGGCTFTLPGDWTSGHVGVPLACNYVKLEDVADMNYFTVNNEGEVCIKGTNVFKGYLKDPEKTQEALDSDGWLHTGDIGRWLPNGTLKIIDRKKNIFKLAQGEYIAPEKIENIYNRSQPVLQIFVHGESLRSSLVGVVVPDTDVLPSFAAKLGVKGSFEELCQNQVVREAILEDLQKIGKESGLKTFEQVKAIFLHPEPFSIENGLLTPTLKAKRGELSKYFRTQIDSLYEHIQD

hACSL5 [2] = target: T1, hACSL5; assay: Cell-based assay (CBA) with B12FA in hACSL5-transfected Expi293F / FlpIn TRex293 cells; conditions: hACSL5-expressing cells
Procedure, shortened: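 hACSL5-expressing Expi293F or tetracycline-induced FlpIn TRex293 cells, serum- and glucose-starved 1 h, then treated 3 h with serially diluted compound plus 20 µM B12FA. After fixation, 630/520 nm emission ratio (ex 485 nm) gave % inhibition versus no-inhibitor and 10 µM compound/non-induced controls; IC50 by Hill fit.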
Target sequence in this assay (Q9ULC5 whole entry): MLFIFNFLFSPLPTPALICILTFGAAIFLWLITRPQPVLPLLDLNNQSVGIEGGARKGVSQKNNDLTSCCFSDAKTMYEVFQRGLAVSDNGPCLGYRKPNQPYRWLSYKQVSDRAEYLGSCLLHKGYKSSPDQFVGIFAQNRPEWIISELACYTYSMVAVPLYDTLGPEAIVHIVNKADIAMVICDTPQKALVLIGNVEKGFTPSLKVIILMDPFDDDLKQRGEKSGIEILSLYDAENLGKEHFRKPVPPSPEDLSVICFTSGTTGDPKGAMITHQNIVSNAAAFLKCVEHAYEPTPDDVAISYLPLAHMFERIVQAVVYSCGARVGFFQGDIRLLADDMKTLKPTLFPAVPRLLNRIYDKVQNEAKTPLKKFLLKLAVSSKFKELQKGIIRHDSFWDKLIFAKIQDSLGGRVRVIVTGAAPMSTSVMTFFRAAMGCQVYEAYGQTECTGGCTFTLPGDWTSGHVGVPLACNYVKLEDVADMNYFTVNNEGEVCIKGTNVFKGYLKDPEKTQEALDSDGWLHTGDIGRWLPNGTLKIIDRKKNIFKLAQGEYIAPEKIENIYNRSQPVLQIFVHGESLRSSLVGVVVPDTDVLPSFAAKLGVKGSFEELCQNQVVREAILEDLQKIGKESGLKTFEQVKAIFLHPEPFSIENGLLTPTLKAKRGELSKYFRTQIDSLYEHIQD

SMILES	IC50 (hACSL5 [1])	IC50 (hACSL5 [2])
CC[C@@H](Oc1ccc(C(=O)NS(=O)(=O)c2ccc(OCCN(C)C)cc2)c(F)c1F)c1ccc(OCC2CC2)cn1 [Compound B, (R)-4-(1-(5-(cyclopropylmethoxy)pyridin-2-yl)propoxy)-N-((4-(2-(dimethylamino)ethoxy)phenyl)sulfonyl)-2,3-difluorobenzamide]	< 0.1 µM	0.1 to 0.5 µM
CC[C@@H](Oc1ccc(C(=O)NS(=O)(=O)N2CCC(OCCN(C)C)CC2)c(F)c1F)c1ccc(Oc2ccccn2)cn1 [Compound C, (R)-N-((4-(2-(dimethylamino)ethoxy)piperidin-1-yl)sulfonyl)-2,3-difluoro-4-(1-(5-(pyridin-2-yloxy)pyridin-2-yl)propoxy)benzamide]	< 0.1 µM	0.1 to 0.5 µM
CC[C@@H](Oc1ccc(C(=O)NS(=O)(=O)N2CCN(C)CC2)c(F)c1F)c1ccc(Oc2ccccn2)cn1 [Compound D, (R)-2,3-difluoro-N-((4-methylpiperazin-1-yl)sulfonyl)-4-(1-(5-(pyridin-2-yloxy)pyridin-2-yl)propoxy)benzamide]	< 0.1 µM	< 0.1 µM
